The source of these data is patent US12522584B2, “3,4-dihydroisoquinoline compound and use thereof” (CSPC Zhongqi Pharmaceutical Technology (Shijiazhuang) Co., …, priority 2020, dated 2026).

Data set [1] deals with PRMT5 (Homo sapiens (Human), UniProt O14744). In words: radiometric assay for PRMT5 based on FlashPlate technology. It is filed as biochemical. Particulars: PRMT5 5 nM, [3H]-SAM, 60 min at 25° C.; read-out: Enzymology (IC50). As to the method:
The radiometric assay for PRMT5 based on FlashPlate technology was adopted to determine IC50 of the test compound.
After dissolved in dimethyl sulfoxide respectively, the test compounds were added into an Echo Qualified 384-well plate and diluted to the desired concentrations. The diluted test compounds were transferred from the Echo Qualified 384-well plate to a 384-well reaction plate using an Echo 550 instrument, and dimethyl sulfoxide was transferred into both the control and blank wells. PRMT5 was added to 1×reaction buffer (including 10 mM Tris-HCl; pH 8.0; 0.01% Tween-20; 1 mM DTT) to form a 1.67×enzyme solution (at an enzyme concentration of 5 nM). A polypeptide substrate and [3H]-SAM were added to 1× reaction buffer to form a 2.5× substrate solution (the terminal concentrations of the substrates were 100 nM and 250 nM, respectively). At a volume of 15 μL/well, the 1.67× enzyme solution was added into wells of the 384-well reaction plate. In case of the blank wells, the enzyme solution was replaced with 15 μL of the 1× reaction buffer. The reaction plate was centrifuged at 1000 rpm for 1 min, and incubated at room temperature for 15 min. To each well of the 384-well reaction plate, 10 μL of the 2.5× substrate solution was added, centrifuged at 1000 rpm for 1 min, and reacted at 25° C. for 60 min. To each well of the 384-well reaction plate, 5 μL of reaction stop solution (which was […] cold SAM solution) was added to terminate the reaction. From each well of the test plate, 25 μL was measured and transferred to Flashplate and left at room temperature for 1 h. Thereafter, the Flashplate was washed with 0.1% Tween-20 solution three times. Readings were taken with MicroBeta 2. The data was converted into the inhibition rate data. Inhibition rate=(conversion ratecontrol well−conversion ratecompound well)/(conversion ratecontrol well−conversion rateblank well)×100%. The IC50curves were fitted using XLFit5.4.0.8. The fitting equation was as follows:Y=Bottom+(Top-Bottom)/(1+(IC50/X)^HillSlope).

The subject of data set [2] is human acute monocytic leukemia cell line MV4-11. In words: MV4-11 MTT cell growth inhibition. The class given is cell-based. Particulars: 144 h, MV4-11 cells, MTT on Day 6. The method, then:
The complete medium required for the culture of human acute monocytic leukemia cell line MV4-11 (Shanghai Cell Bank) for experiment was IMDM (Cat NO. 12440-053, gibco) supplemented with 10% FBS (Cat NO. SA311.02, cellmax). The cells were cultured in an incubator at 37° C. with 5% CO2. The experiment reagents included dimethyl sulfoxide (Tianjin Kemiou Chemical Reagent Co., Ltd.) and MTT (THIAZOLYL BLUE TETRAZOLIUM BROMIDE, CAS. NO. 298-93-1, VWR). The control compound GSK3326595 for experiment was homemade or commercially available. The test compound was encapsulated and stored at 4° C.
Dimethyl sulfoxide was used as a vehicle to fully dissolve the test compound, thereby formulating a stock solution at a concentration of 5×10^−2 mol/L. The stock solution was stored at −20° C. With the complete medium as diluent, the test compound was subjected to gradient dilution to afford dilutions at different concentrations for standby application. In a 96-well culture plate, the suspension of the human acute monocytic leukemia cell line MV4-11 in the complete medium, at a volume of 100 μL/well (2×10^3 cells/well), was added. Afterwards, the dilutions at different concentrations of the corresponding test compounds (100 μL/well) were added, respectively. Each of the test compounds was provided with 8 concentration gradients and three replicates were used for each concentration. The plates were incubated in an incubator at 37° C. with 5% CO2. On Day 6, the plate was treated with MTT (20 μL/well) and incubated for 4 h in an incubator at 37° C. with 5% CO2. The supernatant was discarded. Dimethyl sulfoxide (150 μL/well) was added and mixed well by shaking. The OD value at 550 nm was measured with a microplate reader. Wells containing only cell suspensions without the test compounds were control wells, and wells containing only complete media were blank wells. The cell growth inhibition rate was calculated according to the following equation: Inhibition rate=(OD valuecontrol well−OD valuesample well)/(OD valuecontrol well−OD valueblank well)×100%. According to the inhibition rate at each concentration, the half maximal inhibitory concentration IC50 value was calculated using the SPSS software. 2. Enzymatic Experiment

Data set [3] can be described thus: Pharmacokinetic experiment in SD rats. Particulars: male, rat, plasma, po, 25 mg/kg.
Procedure: SD rats (male, 180 g to 200 g, Beijing Vital River Laboratory Animal Technology Co., Ltd.) were administered with the test compounds (solvent: 2% DMSO+98% (0.2 g/mL) hydroxypropyl-β-cyclodextrin, dosing volume: 5 mL/kg) by gavage. Blood was collected from the orbits of the rats at different points in time (0.25, 0.5, 1, 2, 4, 8, 24 h) after administration. The collected whole blood was anticoagulated with heparin sodium and centrifuged at 3000 g to obtain rat plasma samples, and methanol was added thereto to precipitate proteins. The drug concentration in rat plasma after administration was determined by HIPLC-MS/MS method. A drug concentration-time curve was plotted and the pharmacokinetic parameters were calculated. Pharmacokinetic behaviors of the compounds after administration in rats were described by means of the parameter estimation of non-compartmental model based on statistical moment theory.
The subject of data set [4] is MV4-11 xenografts. The experiment in a line: In vivo efficacy in MV4-11 subcutaneous xenograft model. Particulars: for d9 Tumor Volume (mm^3) / Body Weight Change (%) / Tumor Weight / Tumor weight inhibition rate (%) / RTV (d9): 100 mg/kg BID; for d9 Tumor Volume (mm^3): 9th day after administration; for Body Weight Change (%): 11 consecutive days, NOD-SCID mice; for Tumor Weight / Tumor weight inhibition rate (%): 11 days; for Tumor Weight: tumors dissected at end; for Tumor weight inhibition rate (%): versus vehicle group; for d0 Tumor Volume (mm^3): d0, before grouping for administration (baseline); for RTV (d9): relative tumor volume = d9/d0 tumor volume.
Procedure: Experimental female NOD-SCID mice, SPF grade, 4 to 5 weeks, were purchased from Beijing Vital River Laboratory Animal Technology Co., Ltd. The mice were intraperitoneally injected with cyclophosphamide at a dose of 100 mg/kg one day before cell inoculation. The human acute monocytic leukemia cell line MV4-11 (1×10^7/0.1 ml/mouse) was subcutaneously inoculated into forelimb axilla of mice to establish a subcutaneous xenograft model. When the tumor volumes reached about 110 mm^3 (10 days after inoculation), the mice were equally grouped according to the tumor volume, with 5 mice in each group, i.e., vehicle group (2% DMSO+98% (0.2 g/mL) hydroxypropyl-β-cyclodextrin) and test drug groups. For the test drug groups, the dose of administration was 100 mg/kg, the dosing volume was 10 mL/kg, the dosing frequency was BID, the tumor diameters were measured twice per week, and the data was recorded. The mice were administered for 11 consecutive days. When the experiment ended, the tumors were dissected and weighed.

Marks after values point to notes of the source that are not given here.

Chain of PRMT5 (O14744 whole entry): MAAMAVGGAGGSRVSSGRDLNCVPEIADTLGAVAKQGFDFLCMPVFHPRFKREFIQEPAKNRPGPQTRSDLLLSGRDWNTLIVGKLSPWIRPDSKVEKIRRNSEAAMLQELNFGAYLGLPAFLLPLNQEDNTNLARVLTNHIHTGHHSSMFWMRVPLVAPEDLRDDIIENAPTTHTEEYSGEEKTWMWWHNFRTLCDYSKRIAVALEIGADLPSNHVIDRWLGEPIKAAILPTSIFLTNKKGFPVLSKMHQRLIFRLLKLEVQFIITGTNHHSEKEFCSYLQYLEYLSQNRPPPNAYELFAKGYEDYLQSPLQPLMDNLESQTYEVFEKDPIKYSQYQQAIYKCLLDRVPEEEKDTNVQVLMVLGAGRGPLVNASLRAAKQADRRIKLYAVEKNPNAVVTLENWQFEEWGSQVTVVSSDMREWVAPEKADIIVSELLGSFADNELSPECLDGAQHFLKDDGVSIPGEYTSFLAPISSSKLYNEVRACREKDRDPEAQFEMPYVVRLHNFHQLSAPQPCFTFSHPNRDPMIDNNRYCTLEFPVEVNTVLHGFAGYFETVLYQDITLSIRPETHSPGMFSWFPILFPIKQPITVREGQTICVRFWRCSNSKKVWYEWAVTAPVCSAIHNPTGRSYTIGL
Chain of PRMT5 (Q9BQA1 whole entry partner): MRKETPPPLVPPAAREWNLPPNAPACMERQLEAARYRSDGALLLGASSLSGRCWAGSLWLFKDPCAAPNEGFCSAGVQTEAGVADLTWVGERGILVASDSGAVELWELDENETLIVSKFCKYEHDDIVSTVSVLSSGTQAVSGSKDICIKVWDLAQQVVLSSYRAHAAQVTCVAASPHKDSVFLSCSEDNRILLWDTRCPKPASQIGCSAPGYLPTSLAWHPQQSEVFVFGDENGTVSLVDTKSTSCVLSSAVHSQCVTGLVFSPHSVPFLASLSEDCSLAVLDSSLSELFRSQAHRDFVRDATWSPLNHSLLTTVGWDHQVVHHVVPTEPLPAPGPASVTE

For orientation: IC50 means the concentration that gives 50% inhibition. In the case of `CC(=NO)C(=O)N1CCC(Nc2cc(C(=O)NC[C@H](O)CN3CCc4ccccc4C3)ncn2)CC1` [PR-3, (S)-N-(3-(3,4-dihydroisoquinolin-2(1H)-yl)-2-hydroxypropyl)-6-((1-(2-(hydroxyimino)propanoyl)piperidin-4-yl)amino)pyrimidine-4-carboxamide], the IC50 in data set [1] came to 15 nM; in data set [2] it was 1.24 nM.
Consider `CON=C(C(=O)N1CC2(CC(Nc3cc(C(=O)NC[C@H](O)CN4CCc5ccccc5C4)ncn3)C2)C1)C1CC1` [PR-12, (S)-6-((2-(2-cyclopropyl-2-(methoxyimino)acetyl)-2-azaspiro[3.3]heptan-6-yl)amino)-N-(3-(3,4-dihydroisoquinolin-2(1H)-yl)-2-hydroxypropyl)pyrimidine-4-carboxamide], for which the IC50 in data set [1] came to 2.7 nM; in data set [2], 0.691 nM.
With `O=C(NC1CC2(C1)CC(Nc1cc(C(=O)NC[C@H](O)CN3CCc4ccccc4C3)ncn1)C2)C(=NO)C1CC1` (stereo partly drawn) [PR-6, (S)-6-((6-(2-cyclopropyl-2-(hydroxyimino)acetamido)spiro[3.3]heptan-2-yl)amino)-N-(3-(3,4-dihydroisoquinolin-2(1H)-yl)-2-hydroxypropyl)pyrimidine-4-carboxamide], the IC50 in data set [1] is 16 nM; in data set [2] it was 1.9 nM.
In general, AUC(0-t) refers to exposure summed from dosing to a finite time, without extrapolation to infinity. Low readings indicate less exposure, high ones more exposure. What is called Cmax is the highest concentration seen after dosing. One may read the Tmax as the time from dosing to the highest level. With `CON=C(C(=O)NC1CC2(C1)CC(Nc1cc(C(=O)NC[C@H](O)CN3CCc4ccccc4C3)ncn1)C2)C1CC1` (stereo partly drawn) [PR-7, (S)-6-((6-(2-cyclopropyl-2-(methoxyimino)acetamido)spiro[3.3]heptan-2-yl)amino)-N-(3-(3,4-dihydroisoquinolin-2(1H)-yl)-2-hydroxypropyl)pyrimidine-4-carboxamide], in data set [1], the IC50 came out at 14 nM. In addition, the IC50 in data set [2] was found to be 1.04 nM. For the same compound, in data set [3], the AUC(0-t) worked out at 2540 ng·h/mL, the highest level (Cmax) was 1120 ng/mL and the time of peak concentration (Tmax) is 40 min. Besides, in data set [4], the “d9 Tumor Volume (mm^3)” value is on record as 60.2 ± 20.1***## mm^3, the “Body Weight Change (%)” value is given as −6.9%, the “Tumor Weight” value was 0.0710 ± 0.0353 g and the “Tumor weight inhibition rate (%)” value is 90.2%. Further, in data set [4], the “d0 Tumor Volume (mm^3)” value came to 165.6 ± 28.1 mm^3 and the “RTV (d9)” value was 0.4 ± 0.1.
As to `CC(=O)N1CCC(Nc2cc(C(=O)NC[C@H](O)CN3CCc4ccccc4C3)ncn2)CC1` [GSK3326595, reference compound], in data set [4], the “d9 Tumor Volume (mm^3)” value is 135 ± 43** mm^3, the “Body Weight Change (%)” value is reported as −6.8%, the “Tumor Weight” value came to 0.1124 ± 0.0764 g and the “Tumor weight inhibition rate (%)” value was 84.5%. In data set [4], the “d0 Tumor Volume (mm^3)” value came out at 165.2 ± 23.1 mm^3 and the “RTV (d9)” value was determined as 0.8 ± 0.2.
Take `CC(=NO)C(=O)NC1CC2(C1)CC(Nc1cc(C(=O)NC[C@H](O)CN3CCc4ccccc4C3)ncn1)C2` (stereo partly drawn) [PR-8, (S)-N-(3-(3,4-dihydroisoquinolin-2(1H)-yl)-2-hydroxypropyl)-6-((6-(2-(hydroxyimino)propanamido)spiro[3.3]heptan-2-yl)amino)pyrimidine-4-carboxamide]: the IC50 in data set [1] is 19 nM; in data set [2] it was 0.98 nM.
With `CON=C(CC(C)C)C(=O)N1CCC(Nc2cc(C(=O)NC[C@H](O)CN3CCc4ccccc4C3)ncn2)CC1` [PR-5, (S)-N-(3-(3,4-dihydroisoquinolin-2(1H)-yl)-2-hydroxypropyl)-6-((1-(2-(methoxyimino)-4-methylpentanoyl)piperidin-4-yl)amino)pyrimidine-4-carboxamide], in data set [1], the IC50 was 23 nM. The compound further registered a 50% inhibitory concentration (IC50) in data set [2] of 1.44 nM. For the same compound, in data set [3], the AUC(0-t) turned out to be 674 ng·h/mL, the peak level (Cmax) was 660 ng/mL and the time of peak concentration (Tmax) was found to be 20 min.
For the compound `O=C(NC[C@H](O)CN1CCc2ccccc2C1)c1cc(NC2CCN(C(=O)C(=NO)C3CC3)CC2)ncn1` [PR-1, (S)-6-((1-(2-cyclopropyl-2-(hydroxyimino)acetyl)piperidin-4-yl)amino)-N-(3-(3,4-dihydroisoquinolin-2(1H)-yl)-2-hydroxypropyl)pyrimidine-4-carboxamide], the IC50 in data set [1] came to 13 nM; in data set [2], 5.02 nM.
Taken in the same sequence, the figures for `O=C(NC[C@H](O)CN1CCc2ccccc2C1)c1cc(NC2CC3(C2)CN(C(=O)C(=NO)C2CC2)C3)ncn1` [PR-11, (S)-6-((2-(2-cyclopropyl-2-(hydroxyimino)acetyl)-2-azaspiro[3.3]heptan-6-yl)amino)-N-(3-(3,4-dihydroisoquinolin-2(1H)-yl)-2-hydroxypropyl)pyrimidine-4-carboxamide] were 18 nM and 1.4 nM.
In the case of `CON=C(C)C(=O)NC1CC2(C1)CC(Nc1cc(C(=O)NC[C@H](O)CN3CCc4ccccc4C3)ncn1)C2` (stereo partly drawn) [PR-9, (S)-N-(3-(3,4-dihydroisoquinolin-2(1H)-yl)-2-hydroxypropyl)-6-((6-(2-(methoxyimino)propanamido)spiro[3.3]heptan-2-yl)amino)pyrimidine-4-carboxamide], the half-inhibitory concentration (IC50) in data set [1] came to 23 nM. This compound returned a concentration for half-maximal inhibition (IC50) in data set [2] of 6.84 nM. In addition, in data set [3], the area under the curve AUC(0-t) was found to be 1270 ng·h/mL, the Cmax amounted to 875 ng/mL and the time to peak (Tmax) is 30 min.
For the compound `CON=C(C(=O)N1CCC(Nc2cc(C(=O)NC[C@H](O)CN3CCc4ccccc4C3)ncn2)CC1)C1CC1` [PR-2, (S)-6-((1-(2-cyclopropyl-2-(methoxyimino)acetyl)piperidin-4-yl)amino)-N-(3-(3,4-dihydroisoquinolin-2(1H)-yl)-2-hydroxypropyl)pyrimidine-4-carboxamide], the IC50 in data set [1] was 13 nM. In data set [3], the AUC(0-t) turned out to be 821 ng·h/mL, the highest concentration (Cmax) was determined as 473 ng/mL and the time of peak concentration (Tmax) came out at 30 min.
In data set [2], `CON=C(C)C(=O)N1CCC(Nc2cc(C(=O)NC[C@H](O)CN3CCc4ccccc4C3)ncn2)CC1` [PR-4, (S)-N-(3-(3,4-dihydroisoquinolin-2(1H)-yl)-2-hydroxypropyl)-6-((1-(2-(methoxyimino)propanoyl)piperidin-4-yl)amino)pyrimidine-4-carboxamide] had an IC50 of 6.77 nM. Besides, in data set [4], the “d9 Tumor Volume (mm^3)” value is 55.7 ± 19.7***## mm^3, the “Body Weight Change (%)” value is reported as −6.1%, the “Tumor Weight” value worked out at 0.0648 ± 0.0267 g and the “Tumor weight inhibition rate (%)” value is listed as 91.1%. In addition, in data set [4], the “d0 Tumor Volume (mm^3)” value was found to be 165.3 ± 27.5 mm^3 and the “RTV (d9)” value came to 0.4 ± 0.1.
